Laboratory results: a melting point compilation (Tetko et al.)
Peptide text beside a SMILES is read from it.

Compound | melting point [°C]
C1CCC2CCCC2C1 (configuration not stated) | -53
O=C(O)[C@@H]1Cc2ccccc2CN1C(=O)OCC1c2ccccc2-c2ccccc21 | 146 to 149
CCSC(=O)N(CC)C1CCCCC1 | 11.5
FC1CCCCC1 | 13
O=C(O)c1ccc(N2C(=O)C3ON=C(C(=O)c4cccs4)C3C2=O)cc1 (configuration not stated) | 208
O=C1NC2CCCC12 (configuration not stated) | 45 to 50
N#Cc1c(-c2cccc(O)c2)c(C#N)c(=O)n(N)c1N | 323
COc1ccc(Cl)c(Cl)c1 | -8
N#Cc1ccc(N=C=S)cc1 | 120
S=C=Nc1cc(Cl)c(Cl)cc1Cl | 45
O=[N+]([O-])c1cc(Cl)c(Cl)cc1Cl | 57.5
O=C(C=Cc1ccc(-c2ccccc2)o1)c1ccco1 | 99 to 101
CC1C=CC(C2CC(=O)OC2=O)C12CC2 (configuration not stated) | 98
CN1C(=O)NC(=O)C(C)(C2=CCCCC2)C1=O (configuration not stated) | 146
O=[N+]([O-])c1cc(C(F)(F)F)ccc1N1CCOCC1 | 34 to 36
N#Cc1ccc(S(=O)(=O)C(F)(F)F)cc1 | 90
CCC1(CC)C(=O)CCNC1=O | 102
ClC(Cl)(Cl)c1ccc(C(Cl)(Cl)Cl)cc1 | 109
O=C(CBr)c1cccc(F)c1 | 34 to 35
O=S(=O)(Cl)c1c(Cl)sc(Cl)c1Br | 69
Fc1cccc(Cl)c1C(Cl)(Cl)Cl | 38 to 43
CCC(=O)Cl | -94

The remaining lines, values ahead:

melting point [°C] | Compound
197 | Nc1ncnc2c1ncn2C1OC(CO)C(OP(=O)(O)O)C1O (configuration not stated)
153 to 154 | COC(=O)/C=C(/C(=O)OC)N(Nc1ccccc1N=Nc1ccccc1)c1ccccc1
136 to 138 | O=Cc1cc([N+](=O)[O-])ccc1N1CCCC1
128 | CC(C)(C)c1cc(O)ccc1O
207 | COC(=O)c1cnc(S)n1C
165 to 166 | O=C(NCOC(=O)c1ccc(O)cc1)c1ccccc1
129 | CC1=NN(c2ccccc2)C(=O)C1
19 | CCCCCCCCCCC(C)O (configuration not stated)
97 to 98 | CC(C)(Oc1ccc(C(C)(C)C)cc1)C(=O)O
77 to 80 | CC1(C)CC(C(=O)Oc2ccc([N+](=O)[O-])cc2)C(C)(C)N1O (configuration not stated)
67 to 68 | OCc1cccc2[nH]ccc12
203 to 205 | CC(C)C1=C(O)C(=O)C2=C(C1=O)C(O)C(O)C1C(C)(C)CCCC21C (configuration not stated)
158 | CC12CCC(=O)C=C1CCC1C3CCC4(CCC(=O)O4)C3CCC12C (configuration not stated)
147 | CC(=O)Nc1ccc(Cl)cc1Cl
-89.1 | CCc1ccsc1
239 | CC1=NNC(=O)C1=NNc1ccccc1C(=O)O
203 to 204 | CCOC(=O)c1cnn(-c2ccc([N+](=O)[O-])cc2)c1N
105 | CCSc1nc(NC(C)C)nc(NC(C)C)n1
59 | CCOC(=O)C(C)(C)C1(c2ccc(OC)cc2)CCC(=O)O1 (configuration not stated)
38 to 40 | N#Cc1c(C(F)(F)F)cc(Cl)nc1Cl
248 | CC(C)[C@H](NC(=O)CN)C(=O)O (H-Gly-Val-OH)
-59 | CCCc1cc(C)cc(C)c1
199 to 201 | Oc1nn(-c2ccc(Br)cc2)cc1Br
193 | Cc1noc(NS(=O)(=O)c2ccc(N)cc2)c1C
181 | O=C(O)c1ncoc1-c1ccccc1
212 | CCCCC(=O)OC1(C(=O)CO)CCC2C3CCC4=CC(=O)C=CC4(C)C3C(O)CC21C (configuration not stated)
123 | COc1cccc(C(=O)O)c1OC
158 | CS(=O)(=O)c1nc(Br)c(C#N)c(-c2ccc(Cl)cc2)c1Cl
106 | CC(O)CN(CC(C)O)C(=O)COC(=O)c1ccccc1 (configuration not stated)
92.5 | O=C(NCCO[N+](=O)[O-])c1cccnc1
